“Also recorded” adds a separate entry of the source. Where two headings read alike, the source gives them in different places.
Assays:
[1] = tested on: Streptococcus pyogenes (ATCC 19615); conditions: for MIC relative to wild-type Gramicidin A: S. Pyogenes
[2] = tested on: Staphylococcus aureus (ATCC 6538); conditions: for MIC relative to wild-type Gramicidin A: S. Aureus
[3] = cited from earlier work; for Sat. Conc, Lys series: Trp absorbance @ 280 nm, 10 mM PBS, pH 7.0, 1% DMSO, values taken from ref
[4] = Peptide binding onto membranes (Trp fluorescence)
[5] = Peptide binding onto membranes (Trp fluorescence); conditions: negatively charged POPC/POPG vesicles; in words
[6] = tested on: Bacillus subtilis (ATCC 663); conditions: for MIC relative to wild-type Gramicidin A: B. subtilis
[7] = tested on: human red blood cells (hRBCs); assay: K+ leakage from hRBCs (flame atomic emission); assay type: cell-based
Experimental: The rest of supernatant (1.2 mL) from each sample prepared as described in the hemoglobin leakage assay was transferred into a new sterile eppendorf tube and subject to the K+ concentration measurement using a flame-atomic emission spectrometer (λem=766.5 nm, Perkin Elmer Atomic absorption Spectrometer 3100, acetylene/air flame). Three readings were taken for each sample and averaged as final results. The fraction of K+ leakage from hRBCs was calculated as percentage K+ leaked=100·(I776.5,peptide−I776.5,DMSO)/(I776.5,complete lysis−I776.5,DMSO).

[8] = tested on: human red blood cells (hRBCs); assay: Haemoglobin release from human red blood cells; assay type: cell-based
Experimental: Fresh human red blood cells (hRBCs) were centrifuged at 3500 rpm and washed with PBS buffer until the supernatant was clear. The hRBCs were then resuspended and diluted to a final concentration of 1% (v/v) in PBS and used immediately. 15 μL of serial dilution (2-fold) of peptides in DMSO or DMSO alone as a negative control were added to 1.5 mL of hRBCs in PBS. The resulting mixture was gently shaken to mix well and incubated at 37° C. for 1 hr, followed by centrifugation at 3500 rpm for 10 min using tabletop centrifuge. Aliquots (50 μL) of the supernatant (in triplicates) were transferred into a sterile 96-well plate containing 50 μL of H2O in each well. Release of hemoglobin was monitored at 415 nm using a microtiter plate reader. Percentage hemolysis was calculated using percentage hemolysis=100·(A415, peptide-A415,DMSO)/(A415, complete hemolysis-A415, DMSO), where complete hemolysis is achieved by mixing hRBCs with 1% TritonX-100.

[9] = physchem; assay type: physicochemical
Experimental: Peptide solubility in 10 mM HEPES buffer with 1% DMSO was measured by monitoring tryptophan absorbance. A concentrated (6.0-8.0 mM) peptide stock solution in DMSO was diluted 100 times (5 μL of the stock into 500 jtl of 10 mM HEPES buffer, pH 7.0). The mixture was sonicated for 30 mins and then subject to centrifugation (14,000 rpm, 10 mins) to remove possible precipitate. The supernatant (400 μL) was transferred to a quartz cuvette and the peptide concentration was determined by tryptophan absorbance at 280 nm (ε=22760 M−1 cm-1). The UV/Vis spectra of the supernatant can be seen in FIG. 1 and FIG. 5.

[10] = K+ release from liposomes, lipid not specified; assay type: biochemical; conditions: in words
Experimental: With the D-Lys residues incorporated towards the C-terminus, the gA peptide analogs described herein display amphipathic sequences. Since many amphipathic peptides are known to cause membrane damage through a detergent-like mechanism instead of forming specific channels,[19] it was further examined whether it is the case with the gA peptide analogs provided herein. Toward this end, the ion selectivity of gA-3, 4, and 5 was assessed by using liposomes encapsulating K+ and Tb3+ respectively. […] The wild type like channel structure of the D-Lys mutants is further supported by the fact that gA-5 and gA-WT share similar signatures in their circular dichroism spectra (FIG. 11). This exclusive leakage of monovalent cations presents a great advantage of the gA analog peptides described herein in comparison to the majority of AMPs, which often cause catastrophic membrane collapse to release all bacterial cellular content, leading to potential complications of over-stimulated immune response.
The K+ leakage from liposomes was determined by a potassium ion selective electrode (K-ISE, Cole-Parmer, Vernon Hills, Ill.). The electrode was calibrated each day before experiments. A liposome solution in Buffer A (2 mL, 500 μM POPC or POPC/POPG⊃10 mM HEPES, 150 mM KCl, pH 7.0) was stirred at constant speed and peptide at various concentration (1 μL in DMSO) was added accumulatively. Three minutes after each peptide addition, the K+ concentration was measured and reported as the K-ISE potential. At the end of each experiment, gA-WT stock (1 μL, 1 mM) was added to induce 100% K+ leakage. The potential reported by the K-ISE was plotted against peptide concentration after the background noise (caused by DMSO addition) was subtracted and normalized to 0-100%.

[11] = Tb3+ leakage from liposomes, lipid not specified; assay type: biochemical; conditions: at peptide concentrations causing complete K+ release; in words
[12] = tested on: HeLa; assay: MTT toxicity assay; assay type: cell-based, human; conditions: HeLa; in words
Experimental: (§1) Toxicity of gA-WT and gA-5 was tested against two human cancer cell lines, HeLa and MCF-7 (gifts from Professor Eranthie Weerapana at Boston College) by using the MTT assay as described in the protocol provided by Invitrogen.[5] HeLa cells (in DMEM high glucose media with 10% FBS, 1% Pen/Strep, 37° C., 5% CO2) and MCF-7 cells (in RPMI media with 10% FBS and 1% Pen/Strep, 37° C., 5% CO2) were grown to about 80% confluent before removed from the surface of a 20 cm petri-dish with […] with EDTA (3-5 mins, 37° C., 5% CO2). Cells were pelleted (3,500 rpm, 5 mins at 4° C.), and plated at 15,000 cells per well (100 μL per well), then incubated for 48 hrs before peptide addition.
(§2) Stock solutions of gA in DMSO with varied concentrations were prepared so that for each peptide concentration the total volume of DMSO addition was kept constant at 1% (v/v). For each peptide concentration, samples were set up as four replicates. Control wells were loaded with 1 μL of DMSO. After overnight incubation, cells were washed once with PBS before being incubated for 4 hrs with 110 μL of 12 mM 3-(4,5-Dimethylthiazol-2-yl)-2,5-diphenyltetrazolium bromide (MTT) dissolved in RPMI media. The MTT assay was quenched with 100 μL of 10% SDS in 0.01 M HCl and allowed to incubate overnight before absorbance at 570 nm was recorded. Wells were averaged and standard deviations determined for each peptide concentration. Data were normalized to the DMSO control to give % cell survival (see FIG. 3).

[13] = tested on: MCF-7; assay: MTT toxicity assay; assay type: cell-based, human; conditions: MCF-7; in words
Experimental: as §1, §2

[14] = Table 2, standard micro-dilution

| SMILES | MICs S. Pyogenes ([1]; ATCC 19615) [µM] | MIC relative to wild-type Gramicidin A [1] | MICs S. Aureus ([2]; ATCC 6538) [µM] | MIC relative to wild-type Gramicidin A [2] | Sat. Conc, Lys series [3] [µM] | apparent dissociation constant (Kd) / binding [5] | MICs B. Subtilius ([6]; ATCC 663) [µM] | MIC relative to wild-type Gramicidin A [6] | KC50 (50% K+ ion leakage relative to 1% TritonX-100) [7] | peptide concentration for 50% K+ ion leakage, fold greater than wild-type Gramicidin A [7] | HC50 (50% haemoglobin leakage relative to 1% TritonX-100) ([8]; red cells of human) | water solubility, fold higher than wild-type Gramicidin A [9] [fold] | K+ release from LUVs [10] | reduced affinity to POPC vesicles [4] [folds] | Tb3+ leakage from LUVs [11] | haemoglobin leakage from hRBCs [8] | further results |
| --- | --- | --- | --- | --- | --- | --- | --- | --- | --- | --- | --- | --- | --- | --- | --- | --- | --- |
| CC(C)C[C@@H](NC(=O)[C@H](C)NC(=O)CNC(=O)[C@@H](NC=O)C(C)C)C(=O)N[C@@H](C)C(=O)N[C@@H](C(=O)N[C@H](C(=O)N[C@@H](C(=O)N[C@@H](Cc1c[nH]c2ccccc12)C(=O)N[C@H](CC(C)C)C(=O)N[C@@H](Cc1c[nH]c2ccccc12)C(=O)N[C@H](CC(C)C)C(=O)N[C@@H](Cc1c[nH]c2ccccc12)C(=O)N[C@H](CCCCN)C(=O)N[C@@H](Cc1c[nH]c2ccccc12)C(=O)NCCO)C(C)C)C(C)C)C(C)C (racemic) [gA-2, formyl-V-G-A-dL-A-dV-V-dV-W-dL-W-dL-W-dK-W-NHCH2CH2OH] | 0.16 | equivalent to that of wild-type Gramicidin A | 2.5 | equivalent to that of wild-type Gramicidin A | 11 | apparent Kd values close to that of gA-WT | 5 | equivalent to that of wild-type Gramicidin A | 0.01 µM | ~100 fold | 5~10 μM | ~200 |  |  |  |  | apparent dissociation constant (Kd) / binding ([4]; neutral POPC vesicles, in words): apparent Kd values close to that of gA-WT |
| CC(C)C[C@@H](NC(=O)[C@H](C)NC(=O)CNC(=O)[C@@H](NC=O)C(C)C)C(=O)N[C@@H](C)C(=O)N[C@@H](C(=O)N[C@H](C(=O)N[C@@H](C(=O)N[C@@H](Cc1c[nH]c2ccccc12)C(=O)N[C@H](CCCCN)C(=O)N[C@@H](Cc1c[nH]c2ccccc12)C(=O)N[C@H](CC(C)C)C(=O)N[C@@H](Cc1c[nH]c2ccccc12)C(=O)N[C@H](CCCCN)C(=O)N[C@@H](Cc1c[nH]c2ccccc12)C(=O)NCCO)C(C)C)C(C)C)C(C)C (racemic) [gA-3, formyl-V-G-A-dL-A-dV-V-dV-W-dK-W-dL-W-dK-W-NHCH2CH2OH] | 0.32 | ~2 fold | 5 | ~2 fold | 38 | comparable to that of gA-WT | 5 | ~2 fold | 5~10 μM | greater than 10^5 fold | >70 µM | ~740 | potent activity in K+ release | ~70 | essentially no Tb3+ leakage; also recorded: behave similarly to gA-5 | not enough to cause 50% haemoglobin leakage |  |
| CC(C)C[C@@H](NC(=O)[C@H](C)NC(=O)CNC(=O)[C@@H](NC=O)C(C)C)C(=O)N[C@@H](C)C(=O)N[C@@H](C(=O)N[C@H](C(=O)N[C@@H](C(=O)N[C@@H](Cc1c[nH]c2ccccc12)C(=O)N[C@H](CCCCN)C(=O)N[C@@H](Cc1c[nH]c2ccccc12)C(=O)N[C@H](CCCCN)C(=O)N[C@@H](Cc1c[nH]c2ccccc12)C(=O)N[C@H](CC(C)C)C(=O)N[C@@H](Cc1c[nH]c2ccccc12)C(=O)NCCO)C(C)C)C(C)C)C(C)C (racemic) [gA-4, formyl-V-G-A-dL-A-dV-V-dV-W-dK-W-dK-W-dL-W-NHCH2CH2OH] | 0.16 | equivalent to or ˜2-fold higher | 5 | equivalent to or ˜2-fold higher | 39 | comparable to that of gA-WT | 2.5 | equivalent to or ˜2-fold higher | 5~10 μM | over 10^5 fold | >100 µM | ~740 | potent activity in K+ release | ~70 | essentially no Tb3+ leakage; also recorded: behave similarly to gA-5 | not enough to cause 50% haemoglobin leakage |  |
| CC(C)C[C@@H](NC(=O)[C@H](C)NC(=O)CNC(=O)[C@@H](NC=O)C(C)C)C(=O)N[C@@H](C)C(=O)N[C@@H](C(=O)N[C@H](C(=O)N[C@@H](C(=O)N[C@@H](Cc1c[nH]c2ccccc12)C(=O)N[C@H](CC(C)C)C(=O)N[C@@H](Cc1c[nH]c2ccccc12)C(=O)N[C@H](CC(C)C)C(=O)N[C@@H](Cc1c[nH]c2ccccc12)C(=O)N[C@H](CC(C)C)C(=O)N[C@@H](Cc1c[nH]c2ccccc12)C(=O)NCCO)C(C)C)C(C)C)C(C)C (racemic) [gA-WT, formyl-V-G-A-dL-A-dV-V-dV-W-dL-W-dL-W-dL-W-NHCH2CH2OH, reference compound] |  |  |  |  |  |  |  |  |  |  |  |  |  |  |  |  | MICs S. Pyogenes [1, 14]: 0.16 µM; Minimum Inhibition Concentration S. Pyogenesis ([1]; Table 6): 0.16 µM; MICs S. Aureus [2, 14]: 2.5 µM; Minimum Inhibition Concentration S. Aureus ([2]; Table 6): 2.5 µM; solubility in water ([3]; wild type, from reference [8]): < 0.05 µM; MICs B. Subtilius [6, 14]: 2.5 µM; Minimum Inhibition Concentration B. Subtilius ([6]; Table 6): 2.5 µM; KC50 (50% K+ ion leakage relative to 1% TritonX-100) ([7]; Table 2, hRBCs): 0.00014 µM; Toxicity KC50 ([7]; Table 6, hRBCs, preliminary): 0.00014 µM; KC50 ([7]; hRBCs): 140 pM; toxicity, cell survival (MTT) [12]: low μM potency; toxicity, cell survival (MTT) [13]: low μM potency; HC50 (50% haemoglobin leakage relative to 1% TritonX-100) ([8]; Table 2, hRBCs): 5 µM; Toxicity HC50 ([8]; Table 6, hRBCs, preliminary): 5 µM; HC50 ([8]; Table 8): 5 |

Source: US9243037B2, “Gramicidin a mutants that function as antibiotics with improved solubility and reduced toxicity” (Trustees of Boston College, priority 2011, dated 2016)
